What was measured:
[1] = target: 5-hydroxytryptamine receptor 7 (Homo sapiens) (UniProt P34969); conditions: Compound concentration 10.0 uM
[2] = target: Alpha-1B adrenergic receptor (Homo sapiens) (UniProt P35368); conditions: Compound concentration 10.0 uM
[3] = target: Tyrosine-protein kinase Lck (Homo sapiens, UniProt P06239); experiment: Lck(LCK1LGF1) Takeda global kinase panel
[4] = target: Myosin light chain kinase (Homo sapiens, UniProt Q32MK0); experiment: caMLCK(MYL3LGF1) Takeda global kinase panel
[5] = target: Mitotic checkpoint serine/threonine-protein kinase BUB1 (Homo sapiens, UniProt O43683); experiment: Bub1(BUB1LGRL) Takeda global kinase panel
[6] = target: Alpha-1A adrenergic receptor (Homo sapiens) (UniProt P35348); experiment: Inhibition of Adrenergic alpha1A at compound concentration of 10.0 uM in the Eurofins-Panlabs radioligand binding assay (Eurofins_assay_203110); set-up: ligand concentration 0.25 nM; conditions: Rattus norvegicus; Compound concentration 10.0 uM
Myosin-IIIb = Myosin-IIIb (Homo sapiens, UniProt Q8WXR4); experiment: MYO3B(MY3BLGA1) Takeda global kinase panel
[7] = target: Melatonin receptor type 1A (Homo sapiens) (UniProt P48039); experiment: Inhibition of Melatonin MT1 at 10 µM in the Eurofins-Panlabs radioligand binding assay (Eurofins_assay_251600); set-up: ligand concentration 0.05 nM; conditions: Compound concentration 10.0 uM
Mus musculus = species: Mus musculus; experiment: Inhibition of Phorbol Ester at 10 µM in the Eurofins-Panlabs radioligand binding assay (Eurofins_assay_264500); set-up: ligand concentration 3 nM; conditions: Compound concentration 10.0 uM
[8] = target: Bromodomain testis-specific protein (Homo sapiens, UniProt Q58F21); experiment: BRDT(BRDTLGRC) Takeda global kinase panel
[9] = target: Serine/threonine-protein kinase TAO3 (Homo sapiens, UniProt Q9H2K8); experiment: TAO3(TAO3LGY1) Takeda global kinase panel
[10] = target: Myosin light chain kinase family member 4 (Homo sapiens, UniProt Q86YV6); experiment: SgK085(SG85LGY1) Takeda global kinase panel
[11] = target: Serine/threonine-protein kinase SIK2 (Homo sapiens, UniProt Q9H0K1); experiment: QIK(SIK2LGY1) Takeda global kinase panel
[12] = target: Serine/threonine-protein kinase MARK1 (Homo sapiens, UniProt Q9P0L2); experiment: MARK1(MAR1PHY1) Takeda global kinase panel
[13] = target: 5-hydroxytryptamine receptor 1A (Homo sapiens) (UniProt P08908); conditions: Compound concentration 10.0 uM
Aurora kinase B = Aurora kinase B (Homo sapiens, UniProt Q96GD4); experiment: AurB [Aur1(AURBPGE1)] Takeda global kinase panel
Ephrin type-A receptor 5 = Ephrin type-A receptor 5 (Homo sapiens, UniProt P54756); experiment: EphA5(EPA5MGF1) Takeda global kinase panel
[14] = target: Receptor-interacting serine/threonine-protein kinase 3 (Homo sapiens, UniProt Q9Y572); experiment: RIPK3(RIP3IGRI) Takeda global kinase panel
[15] = target: Cyclin-dependent kinase 5 (Homo sapiens, UniProt Q00535); experiment: CDK5(CDK5CGS1) Takeda global kinase panel
[16] = target: Dual specificity testis-specific protein kinase 2 (Homo sapiens, UniProt Q96S53); experiment: TESK2(TES2LGRL) Takeda global kinase panel
[17] = target: Beta-2 adrenergic receptor (Homo sapiens) (UniProt P07550); conditions: Compound concentration 10.0 uM
[18] = target: STE20-related kinase adapter protein alpha (Homo sapiens, UniProt Q7RTN6); experiment: STLK5(STRAPHD1) Takeda global kinase panel
[19] = target: Protein kinase C alpha type (Homo sapiens, UniProt P17252); experiment: PKCalpha(PRKALGY1) Takeda global kinase panel
[20] = target: Mitogen-activated protein kinase 1 (Homo sapiens, UniProt P28482); experiment: ERK2(MAP1LGY1) Takeda global kinase panel
[21] = target: Serine/threonine-protein kinase N1 (Homo sapiens, UniProt Q16512); experiment: PKN1 [PRK1(PKN1LGY1)] Takeda global kinase panel
[22] = target: Mitogen-activated protein kinase kinase kinase 13 (Homo sapiens, UniProt O43283); experiment: LZK(M313LGRJ) Takeda global kinase panel
[23] = target: Mitogen-activated protein kinase 15 (Homo sapiens, UniProt Q8TD08); experiment: ERK7(MP15LGY1) Takeda global kinase panel
[24] = target: Protein kinase C eta type (Homo sapiens, UniProt P24723); experiment: PKCeta(PRKHLGRA) Takeda global kinase panel
[25] = target: NUAK family SNF1-like kinase 2 (Homo sapiens, UniProt Q9H093); experiment: NuaK2(NUA2LHY1) Takeda global kinase panel
[26] = target: Alpha-2B adrenergic receptor (Homo sapiens, UniProt P18089); experiment: GPCRScan assay: inhibition of Alpha2B; set-up: radioligand conc. used [nm] 1.5 – 2.0, parental cells HEKT
[27] = target: Bone morphogenetic protein receptor type-1A (Homo sapiens, UniProt P36894); experiment: BMPR1A(BM1APHRG) Takeda global kinase panel
[28] = target: Serine/threonine-protein kinase SBK1 (Homo sapiens, UniProt Q52WX2); experiment: SBK(SBK1LGY1) Takeda global kinase panel
[29] = target: Tyrosine-protein kinase Mer (Homo sapiens, UniProt Q12866); experiment: Mer(MERTLGF1) Takeda global kinase panel
[30] = target: Mitogen-activated protein kinase kinase kinase 14 (Homo sapiens, UniProt Q99558); experiment: NIK(M314LGP1) Takeda global kinase panel
[31] = target: Tyrosine-protein kinase TXK (Homo sapiens, UniProt P42681); experiment: TXK(TXK1CGD5) Takeda global kinase panel
[32] = target: Serine/threonine-protein kinase Nek5 (Homo sapiens, UniProt Q6P3R8); experiment: Nek5(NEK5LGRD) Takeda global kinase panel
[33] = target: Mitogen-activated protein kinase 4 (Homo sapiens, UniProt P31152); experiment: ERK4(MAP4LGY1) Takeda global kinase panel
[34] = target: Casein kinase II subunit alpha (Homo sapiens, UniProt P68400); experiment: CK2alpha1(C2A1LGF1) Takeda global kinase panel
[35] = target: cAMP-dependent protein kinase catalytic subunit PRKX (Homo sapiens, UniProt P51817); experiment: PRKX(PRKXLGH5) Takeda global kinase panel
[36] = target: Mitogen-activated protein kinase 3 (Homo sapiens, UniProt P27361); experiment: ERK1(MAP3LGY1) Takeda global kinase panel
Homo sapiens = species: Homo sapiens; conditions: Compound concentration 10.0 uM
[37] = target: Tyrosine-protein kinase ABL1 (Homo sapiens, UniProt P00519); experiment: Abl(ABL1IHY1) Takeda global kinase panel
[38] = target: Cannabinoid receptor 1 (Homo sapiens) (UniProt P21554); experiment: Inhibition of Cannabinoid CB1 at compound concentration of 10.0 uM in the Eurofins-Panlabs radioligand binding assay (Eurofins_assay_217050); set-up: ligand concentration 2 nM; conditions: Compound concentration 10.0 uM
[39] = target: Glucocorticoid receptor (Homo sapiens) (UniProt P04150); conditions: Compound concentration 10.0 uM
[40] = target: Serine/threonine-protein kinase Nek1 (Homo sapiens, UniProt Q96PY6); experiment: Nek1(NEK1LGY1) Takeda global kinase panel

Sequence of Alpha-2B adrenergic receptor (P18089 whole entry): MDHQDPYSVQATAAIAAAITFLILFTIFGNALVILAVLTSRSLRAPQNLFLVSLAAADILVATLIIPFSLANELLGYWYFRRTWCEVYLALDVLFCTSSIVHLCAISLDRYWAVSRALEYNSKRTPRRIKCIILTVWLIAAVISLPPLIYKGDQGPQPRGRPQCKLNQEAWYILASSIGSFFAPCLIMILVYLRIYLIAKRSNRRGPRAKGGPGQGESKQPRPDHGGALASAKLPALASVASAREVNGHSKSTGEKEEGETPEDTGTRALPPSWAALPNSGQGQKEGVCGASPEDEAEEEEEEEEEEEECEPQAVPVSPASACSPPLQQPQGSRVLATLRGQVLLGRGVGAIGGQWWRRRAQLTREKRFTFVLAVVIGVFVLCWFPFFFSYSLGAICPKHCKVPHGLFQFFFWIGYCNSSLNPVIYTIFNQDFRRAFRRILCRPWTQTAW
Sequence of Casein kinase II subunit alpha (P68400 whole entry): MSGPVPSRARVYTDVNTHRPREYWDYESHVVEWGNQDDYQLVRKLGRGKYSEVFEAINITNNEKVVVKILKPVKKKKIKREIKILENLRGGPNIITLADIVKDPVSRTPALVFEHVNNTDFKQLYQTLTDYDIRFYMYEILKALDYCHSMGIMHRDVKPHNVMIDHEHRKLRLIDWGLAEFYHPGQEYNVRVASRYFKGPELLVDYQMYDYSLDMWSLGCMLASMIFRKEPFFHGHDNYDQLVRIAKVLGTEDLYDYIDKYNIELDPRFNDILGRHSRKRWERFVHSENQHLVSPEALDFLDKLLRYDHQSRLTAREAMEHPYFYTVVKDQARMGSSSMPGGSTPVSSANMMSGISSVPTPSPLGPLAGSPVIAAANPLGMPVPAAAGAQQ
Sequence of Mitogen-activated protein kinase 1 (P28482 whole entry): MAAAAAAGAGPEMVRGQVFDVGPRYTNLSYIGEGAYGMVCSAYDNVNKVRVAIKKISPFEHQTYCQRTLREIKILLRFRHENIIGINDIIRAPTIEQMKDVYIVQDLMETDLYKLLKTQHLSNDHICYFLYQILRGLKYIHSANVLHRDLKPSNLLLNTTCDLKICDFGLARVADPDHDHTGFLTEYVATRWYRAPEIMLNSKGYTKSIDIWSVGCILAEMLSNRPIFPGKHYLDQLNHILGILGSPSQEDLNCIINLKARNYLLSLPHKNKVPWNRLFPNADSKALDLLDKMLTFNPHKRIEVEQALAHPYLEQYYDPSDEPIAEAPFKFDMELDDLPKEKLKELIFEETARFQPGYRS
Sequence of Myosin light chain kinase family member 4 (Q86YV6 whole entry): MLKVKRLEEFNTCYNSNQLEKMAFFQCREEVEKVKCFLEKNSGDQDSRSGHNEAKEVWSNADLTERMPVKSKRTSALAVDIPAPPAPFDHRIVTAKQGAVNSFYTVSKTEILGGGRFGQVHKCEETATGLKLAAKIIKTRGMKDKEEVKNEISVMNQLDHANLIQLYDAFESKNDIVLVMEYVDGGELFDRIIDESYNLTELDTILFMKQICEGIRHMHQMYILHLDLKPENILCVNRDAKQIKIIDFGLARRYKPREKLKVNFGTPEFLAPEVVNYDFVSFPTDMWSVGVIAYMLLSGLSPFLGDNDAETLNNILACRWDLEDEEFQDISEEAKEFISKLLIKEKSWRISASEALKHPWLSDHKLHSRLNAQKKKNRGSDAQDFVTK
Sequence of Serine/threonine-protein kinase TAO3 (Q9H2K8 whole entry): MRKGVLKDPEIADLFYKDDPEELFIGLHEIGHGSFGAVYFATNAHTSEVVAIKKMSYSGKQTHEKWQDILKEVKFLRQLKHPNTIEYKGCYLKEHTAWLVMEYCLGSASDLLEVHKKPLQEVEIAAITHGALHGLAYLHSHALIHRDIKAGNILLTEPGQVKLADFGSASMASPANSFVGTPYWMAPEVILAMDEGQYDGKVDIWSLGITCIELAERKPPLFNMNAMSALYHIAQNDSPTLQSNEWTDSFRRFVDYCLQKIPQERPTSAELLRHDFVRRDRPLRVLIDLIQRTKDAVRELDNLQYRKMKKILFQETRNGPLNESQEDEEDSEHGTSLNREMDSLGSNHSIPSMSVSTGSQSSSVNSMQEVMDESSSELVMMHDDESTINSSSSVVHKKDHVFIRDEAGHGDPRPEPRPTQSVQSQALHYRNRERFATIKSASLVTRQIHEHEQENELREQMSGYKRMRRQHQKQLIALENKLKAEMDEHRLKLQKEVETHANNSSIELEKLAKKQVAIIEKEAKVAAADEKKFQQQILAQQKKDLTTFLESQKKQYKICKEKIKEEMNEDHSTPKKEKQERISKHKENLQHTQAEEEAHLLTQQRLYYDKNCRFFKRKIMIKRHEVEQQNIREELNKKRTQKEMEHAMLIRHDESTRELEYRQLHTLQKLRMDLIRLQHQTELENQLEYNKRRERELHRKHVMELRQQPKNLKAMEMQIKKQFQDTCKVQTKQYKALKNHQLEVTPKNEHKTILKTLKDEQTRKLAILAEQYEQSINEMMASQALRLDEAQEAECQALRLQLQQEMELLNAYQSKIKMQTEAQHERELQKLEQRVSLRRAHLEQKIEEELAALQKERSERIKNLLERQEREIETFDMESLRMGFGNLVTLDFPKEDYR
Sequence of 5-hydroxytryptamine receptor 7 (Homo sapiens) (P34969 whole entry): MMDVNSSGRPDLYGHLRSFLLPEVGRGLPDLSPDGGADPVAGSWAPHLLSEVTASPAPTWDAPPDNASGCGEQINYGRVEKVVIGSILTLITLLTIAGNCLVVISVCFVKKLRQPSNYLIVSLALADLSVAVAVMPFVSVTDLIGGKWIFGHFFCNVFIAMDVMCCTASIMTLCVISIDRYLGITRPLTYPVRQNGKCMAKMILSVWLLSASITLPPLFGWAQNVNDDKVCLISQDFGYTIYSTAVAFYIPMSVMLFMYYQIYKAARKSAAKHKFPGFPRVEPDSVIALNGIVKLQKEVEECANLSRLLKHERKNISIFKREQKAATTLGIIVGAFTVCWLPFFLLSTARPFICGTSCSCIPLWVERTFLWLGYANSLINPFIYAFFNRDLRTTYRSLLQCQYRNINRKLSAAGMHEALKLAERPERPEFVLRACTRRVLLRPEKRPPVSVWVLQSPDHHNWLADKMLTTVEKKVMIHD
Sequence of Alpha-1B adrenergic receptor (Homo sapiens) (P35368 whole entry): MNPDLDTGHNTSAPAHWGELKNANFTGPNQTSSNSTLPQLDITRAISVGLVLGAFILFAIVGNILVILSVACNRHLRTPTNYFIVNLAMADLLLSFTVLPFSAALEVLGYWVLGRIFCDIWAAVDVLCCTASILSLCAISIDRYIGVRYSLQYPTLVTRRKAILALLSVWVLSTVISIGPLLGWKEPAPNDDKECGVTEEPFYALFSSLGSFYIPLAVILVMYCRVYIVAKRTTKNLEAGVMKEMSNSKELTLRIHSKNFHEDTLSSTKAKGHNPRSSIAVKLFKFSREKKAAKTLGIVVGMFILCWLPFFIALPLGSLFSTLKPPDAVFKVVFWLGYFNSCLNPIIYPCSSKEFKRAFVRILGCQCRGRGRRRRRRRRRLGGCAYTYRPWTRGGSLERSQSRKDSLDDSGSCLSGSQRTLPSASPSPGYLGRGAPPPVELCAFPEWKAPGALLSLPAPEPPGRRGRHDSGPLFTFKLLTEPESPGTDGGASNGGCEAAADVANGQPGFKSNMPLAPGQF
Sequence of Mitogen-activated protein kinase kinase kinase 13 (O43283 whole entry): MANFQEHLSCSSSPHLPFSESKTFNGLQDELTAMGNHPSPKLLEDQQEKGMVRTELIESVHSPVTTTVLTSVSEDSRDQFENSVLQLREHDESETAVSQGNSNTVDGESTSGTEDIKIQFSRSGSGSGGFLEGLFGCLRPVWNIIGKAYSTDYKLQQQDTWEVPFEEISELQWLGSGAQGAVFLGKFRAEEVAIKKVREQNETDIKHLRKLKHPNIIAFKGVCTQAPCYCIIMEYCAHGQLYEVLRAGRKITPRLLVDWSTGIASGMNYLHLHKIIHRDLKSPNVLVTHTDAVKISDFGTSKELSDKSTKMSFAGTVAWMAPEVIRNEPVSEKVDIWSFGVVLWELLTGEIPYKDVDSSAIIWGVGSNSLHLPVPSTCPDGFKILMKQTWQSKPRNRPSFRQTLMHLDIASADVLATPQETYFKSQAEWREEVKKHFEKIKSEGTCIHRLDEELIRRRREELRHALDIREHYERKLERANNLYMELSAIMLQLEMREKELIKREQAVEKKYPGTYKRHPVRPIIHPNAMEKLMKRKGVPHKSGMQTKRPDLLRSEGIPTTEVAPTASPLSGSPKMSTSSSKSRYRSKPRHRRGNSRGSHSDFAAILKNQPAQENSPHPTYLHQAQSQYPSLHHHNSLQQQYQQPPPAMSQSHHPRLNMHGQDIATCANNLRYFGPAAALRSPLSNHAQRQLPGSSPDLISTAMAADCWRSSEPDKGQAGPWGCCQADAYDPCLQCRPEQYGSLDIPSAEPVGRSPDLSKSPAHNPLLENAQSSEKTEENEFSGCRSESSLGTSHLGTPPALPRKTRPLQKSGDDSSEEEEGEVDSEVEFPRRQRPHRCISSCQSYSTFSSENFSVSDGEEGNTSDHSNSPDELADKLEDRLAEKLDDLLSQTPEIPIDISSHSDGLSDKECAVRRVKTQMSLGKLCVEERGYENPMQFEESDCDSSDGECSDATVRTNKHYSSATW
Sequence of Aurora kinase B (Q96GD4 whole entry): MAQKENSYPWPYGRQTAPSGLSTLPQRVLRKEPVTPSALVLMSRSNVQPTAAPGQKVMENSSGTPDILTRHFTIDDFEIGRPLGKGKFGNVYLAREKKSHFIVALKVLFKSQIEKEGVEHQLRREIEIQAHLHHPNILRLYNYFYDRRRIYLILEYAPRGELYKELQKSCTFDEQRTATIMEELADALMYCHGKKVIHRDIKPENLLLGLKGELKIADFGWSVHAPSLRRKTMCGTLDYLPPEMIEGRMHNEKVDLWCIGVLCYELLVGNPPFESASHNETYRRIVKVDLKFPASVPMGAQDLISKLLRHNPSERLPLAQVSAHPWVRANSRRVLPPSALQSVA

## CN1C(=O)[C@@H](N2CCc3c(nn(Cc4ccccc4)c3Br)C2=O)COc2ccccc21 [TP-030-2]
[1]
  inhibition: 5.69%
[2]
  inhibition: -0.19%
[3]
  IC50: 1000 nM
[4]
  IC50: 1000 nM
[5]
  IC50: 1000 nM
[6]
  inhibition: -7%
Myosin-IIIb
  IC50: 1000 nM
[7]
  inhibition: 33%
Mus musculus
  inhibition: 7%
[8]
  IC50: 1000 nM
[9]
  IC50: 1000 nM
[10]
  IC50: 1000 nM
[11]
  IC50: 1000 nM
[12]
  IC50: 1000 nM
[13]
  inhibition: 18%
Aurora kinase B
  IC50: 1000 nM
Ephrin type-A receptor 5
  IC50: 1000 nM
[14]
  IC50: 1000 nM
[15]
  IC50: 1000 nM
[16]
  IC50: 1000 nM
[17]
  inhibition: -4%
[18]
  IC50: 1000 nM
[19]
  IC50: 1000 nM
[20]
  IC50: 1000 nM
[21]
  IC50: 1000 nM
[22]
  IC50: 1000 nM
[23]
  IC50: 1000 nM
[24]
  IC50: 1000 nM
[25]
  IC50: 1000 nM
[26]; read-out: Ki
  Ki: 2870 nM
[26]; read-out: pKi (converted)
  Ki: 2820 nM
[27]
  IC50: 1000 nM
[28]
  IC50: 1000 nM
[29]
  IC50: 1000 nM
[30]
  IC50: 1000 nM
[31]
  IC50: 1000 nM
[32]
  IC50: 1000 nM
[33]
  IC50: 1000 nM
[34]
  IC50: 1000 nM
[35]
  IC50: 1000 nM
[36]
  IC50: 1000 nM
Homo sapiens
  inhibition: 16%
[37]
  IC50: 1000 nM
[38]
  inhibition: 40%
[39]
  inhibition: 10%
[40]
  IC50: 1000 nM

From ChEMBL document CHEMBL4507326, “Data for DCP probe TP-030-2” (2021)
